{"source": "patent US10471046B2", "about": "“Method for treating, preventing, or reducing the risk of skin infection” (Melinta Subsidiary Corp., priority 2014, dated 2019)", "key": {"[1]": {"assay": "Human exposure (AUC 0-24)", "conditions": "in vivo; human @ 300 mg dose"}, "F. magna [2]": {"tested_on": "F. magna", "assay": "Broth microdilution MIC", "type": "cell-based", "conditions": "Finegoldia magna, ATCC15794; F. magna ATCC 15794"}, "[3]": {"assay": "Long-term rat safety study", "type": "in vivo", "source_text": "There was 100% survival in all dose groups."}, "[4]": {"type": "physicochemical", "conditions": "radezolid salt forms in HPLC grade water, ambient temperature; listed as Free base"}, "S. aureus": {"tested_on": "S. aureus", "assay": "Broth microdilution MIC", "type": "cell-based", "conditions": "Staphylococcus aureus, ATCC29213; S. aureus ATCC 29213"}, "P. acnes": {"tested_on": "P. acnes", "assay": "Agar dilution MIC (CLSI reference method)", "type": "cell-based", "conditions": "for MIC: Cutibacterium acnes"}, "F. magna [5]": {"tested_on": "F. magna", "assay": "Agar dilution MIC (CLSI reference method)", "type": "cell-based"}, "B. thetaiotaomicron [6]": {"tested_on": "B. thetaiotaomicron", "assay": "microbe, parasite or virus in culture", "type": "cell-based", "conditions": "Bacteroides thetaiotaomicron, ATCC29741; B. thetaiotaomicron ATCC 29741; read-out: MIC, agar dilution"}, "[7]": {"tested_on": "intracellular S. aureus (including linezolid-resistant)", "conditions": "cited from earlier work"}, "[8]": {"assay": "Approximate solubility in solvents by aliquot addition", "type": "physicochemical", "conditions": "ambient temperature", "procedure": "Solubilities of the radezolid free base and radezolid HCl salt in various solvents were estimated and are shown in Tables 10 and 11, respectively, below. A weighed sample was treated with aliquots of test solvent at ambient temperature. Complete dissolution of the test material was determined by visual inspection. Solubility was estimated based on the total solvent used to provide complete dissolution. The actual solubility may be greater than the approximate solubility calculated because of the use of solvent aliquots that were too large or due to a slow rate of dissolution. […] If complete dissolution was achieved as a result of only one aliquot addition, the solubility is expressed as “greater than.” The approximate solubilities were rounded to the nearest whole number."}, "[9]": {"assay": "Radezolid levels in granuloma pouch and plasma", "type": "in vivo", "conditions": "FIGS. 3-4"}, "Enterococcus faecalis": {"tested_on": "Enterococcus faecalis", "assay": "MIC against ribosome-based resistance phenotypes", "type": "cell-based", "conditions": "read-out: Minimum Inhibitory Concentration (MIC)", "source_text": "(§1) Furthermore, the antibiotic compounds can be assayed for anti-proliferative or anti-infective properties on a cellular level. For example, where the target organism is a microorganism, the activity of compounds of interest can be assayed by growing the microorganisms of interest in media either containing or lacking the compound. Growth inhibition can be indicative that the molecule could be acting as a protein synthesis inhibitor. […] For this purpose, a panel of bacterial strains can be assembled to include a variety of target pathogenic species, some containing resistance mechanisms that have been characterized. Use of such a panel of organisms permits the determination of structure-activity relationships not only in regards to potency and spectrum, but also with a view to obviating resistance mechanisms."}, "Staphylococcus aureus": {"tested_on": "Staphylococcus aureus", "assay": "MIC against ribosome-based resistance phenotypes", "type": "cell-based", "conditions": "read-out: Minimum Inhibitory Concentration (MIC)", "source_text": "as §1"}, "G. vaginalis": {"tested_on": "G. vaginalis", "assay": "Agar dilution MIC (CLSI reference method)", "type": "cell-based", "conditions": "for MIC: Gardnerella vaginalis"}, "P. granulosum": {"tested_on": "P. granulosum", "assay": "Agar dilution MIC (CLSI reference method)", "type": "cell-based"}, "all organisms": {"tested_on": "all organisms", "assay": "Agar dilution MIC, range over the isolates tested", "type": "cell-based", "conditions": "read-out: agar dilution MICs for all organisms"}, "Enterococcus faecium": {"tested_on": "Enterococcus faecium", "assay": "MIC against ribosome-based resistance phenotypes", "type": "cell-based", "conditions": "Enterococcus faecium A6349; VanA + Lin-R (G2576U); read-out: Minimum Inhibitory Concentration (MIC)", "source_text": "as §1, with “mechanisms. The assays can be performed in microtiter trays according to conventional methodologies as published by The National Committee for Clinical Laboratory Standards (NCCLS) guidelines (NCCLS. M7-A5-Methods for Dilution Antimicrobial Susceptibility Tests for Bacteria That Grow Aerobically; Approved Standard-Fifth Edition. NCCLS Document M100-S12/M7 (ISBN 1-56238-394-9)).” for “mechanisms.”"}, "B. thetaiotaomicron [10]": {"tested_on": "B. thetaiotaomicron", "assay": "microbe, parasite or virus in culture", "type": "cell-based", "conditions": "Bacteroides thetaiotaomicron, ATCC29741; B. thetaiotaomicron ATCC 29741; read-out: MIC, broth microdilution"}, "[11]": {"tested_on": "mammalian cells (e.g., defense cells, macrophages, lung cells, and non-phagocytic cells)", "conditions": "cited from earlier work"}, "B. fragilis": {"tested_on": "B. fragilis", "assay": "Agar dilution MIC (CLSI reference method)", "type": "cell-based", "conditions": "Bacteroides fragilis, ATCC25285; B. fragilis ATCC 25285"}, "Listeria monocytogenes": {"tested_on": "Listeria monocytogenes", "conditions": "cited from earlier work"}}, "note": "Where two headings read alike, the source gives them in different places.", "data": [{"smiles": "CC(=O)NC[C@H]1CN(c2ccc(-c3ccc(CNCc4cnn[nH]4)cc3)c(F)c2)C(=O)O1", "note": "[Radezolid, (5S)—N-[3-(2-Fluoro-4′-{[(1H-[1,2,3]triazol-4-ylmethyl)-amino]-methyl}-biphenyl-4-yl)-2-oxo-oxazolidin-5-ylmethyl]-acetamide]", "values": [{"measurement": "AUC(0-t)", "setting": "[1]", "result": 3330, "unit": "ng·h/mL"}, {"measurement": "MIC", "setting": "F. magna [2]", "result": 0.125, "unit": "µg/mL"}, {"measurement": "survival", "setting": "[3]; both, rat, in vivo", "result": 100, "unit": "%"}, {"measurement": "Safety margin (Rat NOAEL AUC/Human efficacious AUC)", "setting": "[3]; calculated from rat and human AUC 0-24", "result": 30.8, "unit": "x"}, {"measurement": "AUC(0-t)", "setting": "[3]; male, rat, in vivo, 200 mg/kg", "result": 102000, "unit": "ng·h/mL"}, {"measurement": "changes in hematology, coagulation, clinical chemistry, or urinalysis", "setting": "[3]; rat, in vivo", "result": "No test article-related changes"}, {"measurement": "safety in long-term rat study", "setting": "[3]; rat, in vivo", "result": "good safety"}, {"measurement": "solubility", "setting": "[4]", "result": "<20", "unit": "µg/mL"}, {"measurement": "MIC", "setting": "S. aureus", "result": 2, "unit": "µg/mL"}, {"measurement": "MIC", "setting": "P. acnes; ATCC11827, P. acnes ATCC 11827", "result": 0.125, "unit": "µg/mL"}, {"measurement": "MIC", "setting": "P. acnes; ATCC11828, P. acnes ATCC 11828", "result": 0.125, "unit": "µg/mL"}, {"measurement": "MIC", "setting": "P. acnes; ATCC29399, P. acnes ATCC 29399", "result": 0.125, "unit": "µg/mL"}, {"measurement": "agar dilution MIC, fold more potent than linezolid", "setting": "P. acnes; P. acnes", "result": 4, "unit": "fold"}, {"measurement": "agar dilution MIC, fold more potent than linezolid", "setting": "F. magna [5]; F. magna", "result": 4, "unit": "fold"}, {"measurement": "difference between broth and agar dilution MICs", "setting": "F. magna [5]; F. magna", "result": 4, "unit": "fold"}, {"measurement": "MIC", "setting": "F. magna [5]; Finegoldia magna, ATCC15794, F. magna ATCC 15794", "result": 0.5, "unit": "µg/mL"}, {"measurement": "MIC", "setting": "B. thetaiotaomicron [6]", "result": "> 8", "unit": "µg/mL"}, {"measurement": "intracellular killing", "setting": "[7]", "result": "kills"}, {"measurement": "solubility", "setting": "[8]; 2,2,2-trifluoroethanol (TFE), organic solvent or mixture, thermodynamic from solid, 2,2,2-trifluoroethanol (TFE)", "result": "≥ 54000", "unit": "µg/mL"}, {"measurement": "solubility", "setting": "[8]; HFIPA/methanol (1:3 by volume), organic solvent or mixture, thermodynamic from solid, HFIPA/Methanol (1:3 by volume)", "result": "< 1000", "unit": "µg/mL"}, {"measurement": "solubility", "setting": "[8]; acetone, organic solvent or mixture, thermodynamic from solid", "result": "< 1000", "unit": "µg/mL"}, {"measurement": "solubility", "setting": "[8]; acetonitrile, organic solvent or mixture, thermodynamic from solid", "result": "< 1000", "unit": "µg/mL"}, {"measurement": "solubility", "setting": "[8]; dichloromethane, organic solvent or mixture, thermodynamic from solid", "result": "< 1000", "unit": "µg/mL"}, {"measurement": "solubility", "setting": "[8]; ethyl acetate, organic solvent or mixture, thermodynamic from solid", "result": "< 1000", "unit": "µg/mL"}, {"measurement": "solubility", "setting": "[8]; ethyl ether, organic solvent or mixture, thermodynamic from solid", "result": "< 1000", "unit": "µg/mL"}, {"measurement": "solubility", "setting": "[8]; hexafluoroisopropanol (HFIPA), organic solvent or mixture, thermodynamic from solid", "result": "≥ 245000", "unit": "µg/mL"}, {"measurement": "solubility", "setting": "[8]; hexamethylphosphoramide, organic solvent or mixture, thermodynamic from solid, Hexamethyl-phosphoramide", "result": "< 26000", "unit": "µg/mL"}, {"measurement": "solubility", "setting": "[8]; methanol, organic solvent or mixture, thermodynamic from solid", "result": "< 1000", "unit": "µg/mL"}, {"measurement": "solubility", "setting": "[8]; tetrahydrofuran (THF), organic solvent or mixture, thermodynamic from solid", "result": "< 1000", "unit": "µg/mL"}, {"measurement": "solubility", "setting": "[8]; water, thermodynamic from solid", "result": "< 1000", "unit": "µg/mL"}, {"measurement": "levels in granuloma pouch versus plasma over time", "setting": "[9]", "result": "remain high in granuloma pouch even as they decline in the plasma"}, {"measurement": "MIC", "setting": "Enterococcus faecalis; ATCC29212, Enterococcus faecalis ATCC29212, phenotype QC", "result": 0.25, "unit": "µg/mL"}, {"measurement": "MIC", "setting": "Enterococcus faecalis; ATCC29212, Enterococcus faecalis ATCC29212-P5, Lin-R (G2576U)", "result": 1, "unit": "µg/mL"}, {"measurement": "MIC", "setting": "Enterococcus faecalis; Enterococcus faecalis 1069, VanB", "result": 0.25, "unit": "µg/mL"}, {"measurement": "MIC", "setting": "Staphylococcus aureus; ATCC29213, Staphylococcus aureus ATCC29213, phenotype QC", "result": 1, "unit": "µg/mL"}, {"measurement": "MIC", "setting": "Staphylococcus aureus; Staphylococcus aureus 01A1095, Mac-R", "result": 1, "unit": "µg/mL"}, {"measurement": "MIC", "setting": "Staphylococcus aureus; Staphylococcus aureus A7820, Lin-R (G2576U) + Mac-R (ErmC)", "result": 16, "unit": "µg/mL"}, {"measurement": "agar dilution MIC, fold more potent than linezolid", "setting": "G. vaginalis; G. vaginalis", "result": 8, "unit": "fold"}, {"measurement": "MIC", "setting": "G. vaginalis; ATCC14018, G. vaginalis ATCC 14018", "result": 0.06, "unit": "µg/mL"}, {"measurement": "MIC", "setting": "G. vaginalis; ATCC49145, G. vaginalis ATCC 49145", "result": 0.06, "unit": "µg/mL"}, {"measurement": "agar dilution MIC, fold more potent than linezolid", "setting": "P. granulosum; P. granulosum", "result": 8, "unit": "fold"}, {"measurement": "MIC", "setting": "P. granulosum; P. granulosum ATCC 25746", "result": 0.25, "unit": "µg/mL"}, {"measurement": "MIC", "setting": "all organisms", "result": "0.06 to 1", "unit": "µg/mL"}, {"measurement": "MIC", "setting": "Enterococcus faecium", "result": 0.5, "unit": "µg/mL"}, {"measurement": "MIC", "setting": "B. thetaiotaomicron [10]", "result": 8, "unit": "µg/mL"}, {"measurement": "fraction accumulating in the cytosol of cells", "setting": "[11]; cytosol", "result": "Approximately 60%"}, {"measurement": "fraction accumulating in the lysosome", "setting": "[11]; lysosome", "result": "approximately 40%"}, {"measurement": "accumulation in mammalian cells, extent greater than linezolid", "setting": "[11]; relative to linezolid", "result": 17, "unit": "fold"}, {"measurement": "MIC", "setting": "B. fragilis", "result": 4, "unit": "µg/mL"}, {"measurement": "intracellular killing", "setting": "Listeria monocytogenes", "result": "kills"}]}]}
